This test concerns the target T1, CDK12 protein level in CAL-120 breast cancer cells (Homo sapiens, UniProt Q9NYV4).
T1 construct: endogenous in cells; host or cells: CAL-120 human breast cancer cells (DSMZ ACC 459)
Kind of test: CDK12 protein level: Protein Simple (CDK12, CAL-120). In kind it is cell-based. The note with it: CAL-120 cells, 18 h with compound, CDK12/HSP90 peak area ratio vs vehicle, median, read-out: CDK12 protein level in CAL-120 breast ca cells, DC50-[mol/l] (median). Put shortly: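 Cells grown 24 h, then treated with compounds for 18 h at 37° C against DMSO controls. Lysates (0.4 microgramms protein) run on Protein Simple 66-440 kDa size assay with CDK12 and HSP90 loading-control antibodies. CDK12/HSP90 peak-area ratios versus vehicle gave DC50 (50% reduction) by 4-parameter fit.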

T1 sequence (Q9NYV4 whole entry): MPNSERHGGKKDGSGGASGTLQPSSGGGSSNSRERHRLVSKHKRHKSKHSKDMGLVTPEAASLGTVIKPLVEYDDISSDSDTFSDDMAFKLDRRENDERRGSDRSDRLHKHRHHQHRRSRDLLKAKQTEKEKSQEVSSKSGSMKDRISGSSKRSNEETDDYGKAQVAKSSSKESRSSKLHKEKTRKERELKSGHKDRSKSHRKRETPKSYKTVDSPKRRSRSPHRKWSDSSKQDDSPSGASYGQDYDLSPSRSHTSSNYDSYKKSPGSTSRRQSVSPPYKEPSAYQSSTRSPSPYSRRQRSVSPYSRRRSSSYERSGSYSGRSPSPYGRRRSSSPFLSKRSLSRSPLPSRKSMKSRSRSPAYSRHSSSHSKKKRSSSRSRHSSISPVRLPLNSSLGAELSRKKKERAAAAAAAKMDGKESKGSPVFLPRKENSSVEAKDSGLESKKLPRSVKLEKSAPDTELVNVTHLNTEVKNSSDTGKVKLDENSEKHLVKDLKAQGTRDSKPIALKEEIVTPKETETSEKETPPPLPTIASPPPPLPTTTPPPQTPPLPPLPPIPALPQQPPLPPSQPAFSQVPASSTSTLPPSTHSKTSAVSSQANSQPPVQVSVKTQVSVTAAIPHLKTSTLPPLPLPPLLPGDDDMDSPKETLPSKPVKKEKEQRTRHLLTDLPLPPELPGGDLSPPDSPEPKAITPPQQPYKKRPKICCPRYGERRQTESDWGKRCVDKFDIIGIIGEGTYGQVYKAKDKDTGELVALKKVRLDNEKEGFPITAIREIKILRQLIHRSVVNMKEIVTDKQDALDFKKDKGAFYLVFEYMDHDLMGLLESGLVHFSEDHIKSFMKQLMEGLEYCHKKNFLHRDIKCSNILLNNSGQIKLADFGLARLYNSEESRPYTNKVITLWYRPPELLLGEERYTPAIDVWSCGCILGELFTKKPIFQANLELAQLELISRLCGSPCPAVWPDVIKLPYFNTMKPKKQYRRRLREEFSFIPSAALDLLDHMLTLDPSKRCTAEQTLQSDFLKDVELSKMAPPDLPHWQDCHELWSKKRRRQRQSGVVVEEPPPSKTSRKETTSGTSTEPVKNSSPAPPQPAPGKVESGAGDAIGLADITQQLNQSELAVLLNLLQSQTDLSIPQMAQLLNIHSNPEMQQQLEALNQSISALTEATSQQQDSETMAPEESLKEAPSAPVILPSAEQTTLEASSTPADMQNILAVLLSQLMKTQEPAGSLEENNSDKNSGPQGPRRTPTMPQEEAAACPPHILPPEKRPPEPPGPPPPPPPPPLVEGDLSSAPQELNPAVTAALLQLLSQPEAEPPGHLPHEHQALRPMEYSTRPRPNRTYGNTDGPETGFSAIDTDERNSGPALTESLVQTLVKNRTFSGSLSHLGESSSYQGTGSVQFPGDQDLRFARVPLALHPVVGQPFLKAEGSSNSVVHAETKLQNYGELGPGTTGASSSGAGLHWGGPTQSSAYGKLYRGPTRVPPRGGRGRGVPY
T1 sequence (O75909 whole entry partner): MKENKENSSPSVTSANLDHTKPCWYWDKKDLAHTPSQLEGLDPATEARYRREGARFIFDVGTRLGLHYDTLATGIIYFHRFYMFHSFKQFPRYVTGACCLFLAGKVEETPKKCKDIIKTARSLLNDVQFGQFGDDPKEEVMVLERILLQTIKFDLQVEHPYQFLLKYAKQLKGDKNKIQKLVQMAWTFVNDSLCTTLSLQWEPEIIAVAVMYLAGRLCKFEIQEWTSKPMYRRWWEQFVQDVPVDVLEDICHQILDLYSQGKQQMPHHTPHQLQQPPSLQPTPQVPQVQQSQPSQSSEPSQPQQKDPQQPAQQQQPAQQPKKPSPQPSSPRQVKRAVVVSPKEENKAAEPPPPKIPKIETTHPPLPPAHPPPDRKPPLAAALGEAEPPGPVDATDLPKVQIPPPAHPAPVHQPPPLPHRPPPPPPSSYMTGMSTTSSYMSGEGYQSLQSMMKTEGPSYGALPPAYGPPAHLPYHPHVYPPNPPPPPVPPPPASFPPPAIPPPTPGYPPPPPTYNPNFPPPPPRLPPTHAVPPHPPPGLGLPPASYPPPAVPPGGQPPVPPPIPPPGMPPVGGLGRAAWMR

In the case of `Brc1cnn2c(NCc3nnc(-c4ccccc4)[nH]3)nc(N3CCCC3)nc12` [Example 64, 8-bromo-N-[(5-phenyl-4H-1,2,4-triazol-3-yl)methyl]-2-(pyrrolidin-1-yl)pyrazolo[1,5-a][1,3,5]triazin-4-amine], the DC50 was determined as 87.1 nM. `CC(C)c1cnn2c(NCc3nc4ccccc4[nH]3)nc(N3CCOCC3)nc12` [Example 1, N-[(1H-benzimidazol-2-yl)methyl]-2-(morpholin-4-yl)-8-(propan-2-yl)pyrazolo[1,5-a][1,3,5]triazin-4-amine]: the DC50 is 57.4 nM. For the compound `COC(=O)C1CCN(c2nc(NCc3nc4ccccc4[nH]3)n3ncc(Br)c3n2)CC1` [Example 63, methyl 1-(4-{[(1H-benzimidazol-2-yl)methyl]amino}-8-bromopyrazolo[1,5-a][1,3,5]triazin-2-yl)piperidine-4-carboxylate], the DC50 stood at 41.8 nM. Turning to `COC1CCN(c2nc(NCc3nc4ccccc4[nH]3)n3ncc(Br)c3n2)CC1` [Example 62, N-[(1H-benzimidazol-2-yl)methyl]-8-bromo-2-(4-methoxypiperidin-1-yl)pyrazolo[1,5-a][1,3,5]triazin-4-amine], the DC50 was determined as 128 nM. To `Fc1ccc(-c2cnc(CNc3nc(N4CCOCC4)nc4c(Br)cnn34)[nH]2)cc1` [Example 66, 8-bromo-N-{[5-(4-fluorophenyl)-1H-imidazol-2-yl]methyl}-2-(morpholin-4-yl)pyrazolo[1,5-a][1,3,5]triazin-4-amine] belongs 43.7 nM.

Values taken from patent US20230117034A1, “PYRAZOLOTRIAZINES” (Bayer Aktiengesellschaft, priority 2019, published 2023).
